The results in this text go back to ChEMBL document CHEMBL1201862, “PubChem BioAssay data set” (2004).

Among the test systems are A498; DU-145; HOP-62; K562; KM12; M14; MDA-MB-231; MOLT-4; NCI-H23; NCI-H460; OVCAR-3; OVCAR-4; SF-539; SK-MEL-28; SW-620; T47D; TK-10; HL-60; SR; MDA-N.
What all share (assay): NCI anticancer screen, dose series, 48 h

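Results reflect a 48-hour exposure of cells in 96-well plates to compound at five concentrations. At the GI50, growth is halved.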 Activity calls are given as the source filed them. Cut-off read from the data, not from the text of the source: active = GI50 up to about 1.1 µM and inactive = higher.

Regarding `CO[C@@H]1[C@H](O)CC[C@]2(CO2)[C@H]1[C@@]1(C)O[C@@H]1CC=C(C)C`, the GI50 was > 200 µM (inactive) in the assay with A498; 140 µM (inactive) in the assay with DU-145; 58.2 µM (inactive) in the assay with HOP-62; > 200 µM (inactive) in the assay with K562; 34.1 µM (inactive) in the assay with KM12; 180 µM (inactive) in the assay with M14. In addition, the GI50 with MDA-MB-231 was 157 µM (inactive); with MOLT-4, 80.5 µM (inactive); in the assay on NCI-H23, > 200 µM (inactive); in the assay with NCI-H460, 0.617 µM (active); with OVCAR-3 it was 189 µM (inactive); in the assay on OVCAR-4, > 200 µM (inactive). In addition, the GI50 in the assay on SF-539 was 134 µM (inactive); in the assay on SK-MEL-28, > 200 µM (inactive); in the assay with SW-620 it was 107 µM (inactive); in the assay with T47D it was > 200 µM (inactive); with TK-10 it was > 200 µM (inactive).

With `CC(C)OCN1COCN/C1=N/C#N`, the GI50 in the assay on A498, in the assay on HL-60, in the assay with HOP-62, in the assay with K562, in the assay on KM12 and in the assay with M14 was > 100 µM (inactive) each time. Also, the GI50 in the assay with MOLT-4, in the assay with NCI-H23, with NCI-H460, in the assay with OVCAR-3, in the assay with OVCAR-4 and in the assay on SF-539 was > 100 µM (inactive) in each case. For the same compound, the GI50 in the assay on SK-MEL-28 was > 100 µM (inactive); with SR it was > 100 µM (inactive); in the assay with SW-620, 18.3 µM (inactive); in the assay on TK-10, > 100 µM (inactive).

Regarding `COc1cc(C(=O)OCCn2[nH]c(-c3ccc(Cl)cc3)nc2=S)cc(OC)c1OC`, the GI50 was > 100 µM (inactive) in the assay on A498; 23.6 µM (inactive) with DU-145; 38.9 µM (inactive) in the assay on HL-60; > 100 µM (inactive) in the assay with HOP-62; 47.8 µM (inactive) in the assay on K562; > 100 µM (inactive) in the assay with KM12. Further, the GI50 was 38.3 µM (inactive) in the assay on M14; > 100 µM (inactive) with MDA-MB-231; 49 µM (inactive) in the assay on MDA-N; 22.9 µM (inactive) in the assay with MOLT-4; 49.1 µM (inactive) in the assay with NCI-H23; > 100 µM (inactive) in the assay on NCI-H460. The GI50 with OVCAR-3 was 51.3 µM (inactive); in the assay with OVCAR-4, 95.5 µM (inactive); in the assay on SF-539, 60.8 µM (inactive); in the assay with SK-MEL-28, 42.7 µM (inactive); in the assay on SR, 37.8 µM (inactive); in the assay with SW-620, > 100 µM (inactive). For the same compound, the GI50 in the assay with TK-10 was 54.3 µM (inactive).

For `[N-]=[N+]=NCN1C(=O)C2C3C=CC(C2C1=O)C1C2C(=O)N(CN=[N+]=[N-])C(=O)C2C31` (centres undefined), the GI50 in the assay on DU-145, with HOP-62, in the assay with K562, in the assay with KM12, in the assay on M14 and in the assay on MDA-N was > 100 µM (inactive) throughout. In addition, the GI50 with NCI-H23, with NCI-H460, in the assay on OVCAR-3, with SF-539, in the assay with SK-MEL-28 and in the assay on SW-620 was > 100 µM (inactive) throughout. In addition, the GI50 in the assay on T47D and in the assay on TK-10 was > 100 µM (inactive) in each case.

Consider `O=S(=O)(c1cc(Cl)ccc1Cl)N1CCN(c2ccc(Cl)c(Cl)c2)CC1`, for which the GI50 is 25.5 µM (inactive) in the assay with A498; > 100 µM (inactive) with DU-145; > 100 µM (inactive) in the assay on HL-60; 18.2 µM (inactive) with HOP-62; 91.6 µM (inactive) with K562; 28.2 µM (inactive) in the assay with KM12. Moreover, the GI50 was 39.6 µM (inactive) in the assay on M14; > 100 µM (inactive) in the assay on MDA-MB-231; > 100 µM (inactive) in the assay with MOLT-4; 33.4 µM (inactive) in the assay on NCI-H23; > 10 µM (inactive) in the assay on NCI-H460; 14.6 µM (inactive) in the assay on OVCAR-3. Further, the GI50 is 16.1 µM (inactive) with OVCAR-4; 25.2 µM (inactive) in the assay with SF-539; > 100 µM (inactive) with SK-MEL-28; > 100 µM (inactive) with SR; > 100 µM (inactive) in the assay with SW-620; 20.4 µM (inactive) in the assay with T47D. The GI50 in the assay with TK-10 was 20.6 µM (inactive).

For the compound `CC(C)C1(Cl)CCC2C3(C)CCCC(C)(C(=O)O)C3CC(Cl)C2(Cl)C1Cl` (centres undefined), the GI50 in the assay with A498 was 41.7 µM (inactive); in the assay with HL-60 it was 22.3 µM (inactive); in the assay with K562 it was 24.3 µM (inactive); with KM12, 18.2 µM (inactive); in the assay on M14 it was 23.1 µM (inactive); with MDA-MB-231, 33.3 µM (inactive). The GI50 in the assay on MDA-N is 32.4 µM (inactive); in the assay on MOLT-4 it was 19.4 µM (inactive); with NCI-H23, 54.2 µM (inactive); in the assay on NCI-H460, 23.9 µM (inactive); with OVCAR-4, 24.8 µM (inactive); in the assay on SF-539, 21.7 µM (inactive). Besides, the GI50 in the assay on SK-MEL-28 is 16.7 µM (inactive); in the assay on SR, 25.6 µM (inactive); with SW-620 it was 24.8 µM (inactive); in the assay on TK-10, 43.3 µM (inactive).

For the compound `C#CCNC(CCCNC(=N)N)C(=O)O` (centres undefined), the GI50 with A498, in the assay on DU-145, in the assay with HL-60, with HOP-62, in the assay on K562 and in the assay on KM12 was > 100 µM (inactive) in each case. Also, the GI50 in the assay on M14, with MDA-MB-231, in the assay on MOLT-4, in the assay with NCI-H23, in the assay on NCI-H460 and with OVCAR-3 was > 100 µM (inactive) each time. Further, the GI50 with OVCAR-4, in the assay with SK-MEL-28, with SR, with SW-620, in the assay on T47D and in the assay on TK-10 was > 100 µM (inactive) each time.

For `CCN1C/C(=C\c2ccc(Cl)cc2)c2nc(N)c(C#N)c(-c3ccc(Cl)cc3)c2C1`, the GI50 with A498, with DU-145, in the assay on HL-60, in the assay on HOP-62, in the assay on K562 and with KM12 was > 100 µM (inactive) in each case. Moreover, the GI50 with M14 is > 100 µM (inactive); in the assay on MDA-MB-231, > 100 µM (inactive); in the assay on MDA-N, > 100 µM (inactive); in the assay with MOLT-4, 67.9 µM (inactive); in the assay on NCI-H23, > 100 µM (inactive); with NCI-H460 it was > 100 µM (inactive). The GI50 in the assay with OVCAR-3 is > 100 µM (inactive); with OVCAR-4, > 100 µM (inactive); in the assay on SK-MEL-28, > 100 µM (inactive); with SR, 27.1 µM (inactive); in the assay on SW-620, > 100 µM (inactive); with TK-10 it was > 100 µM (inactive).

Turning to `Nc1nc(Cl)c(CO)c(NCC2(CO)CC(CCc3ccccc3)C2)n1` (centres undefined), the GI50 in the assay with A498 is 22.2 µM (inactive); with DU-145 it was 22.6 µM (inactive); in the assay with HL-60, 3.4 µM (inactive); with HOP-62, 25.4 µM (inactive); in the assay on K562, 1.37 µM (inactive); in the assay with KM12, 0.264 µM (active). Also, the GI50 with MDA-MB-231 is 12.5 µM (inactive); in the assay with MDA-N, > 100 µM (inactive); in the assay on MOLT-4 it was 2.1 µM (inactive); with NCI-H23 it was 0.0951 µM (active); in the assay on NCI-H460 it was 13.1 µM (inactive); in the assay on OVCAR-3 it was 18.8 µM (inactive). Besides, the GI50 in the assay with OVCAR-4 is 14.4 µM (inactive); in the assay on SF-539, 21.9 µM (inactive); with SK-MEL-28, 20.4 µM (inactive); with SR it was 4.82 µM (inactive); with SW-620, 19.6 µM (inactive); with TK-10, 80.2 µM (inactive).

As for `CC(=O)CC(=O)Nn1c(-c2cccs2)nc2ccc(I)cc2c1=O`, the GI50 with DU-145 was > 38.1 µM (inactive); in the assay with HL-60, > 66.5 µM (inactive); with HOP-62 it was > 66.4 µM (inactive); in the assay with K562, > 65.9 µM (inactive); in the assay with KM12, > 54.7 µM (inactive); in the assay with M14, > 66.8 µM (inactive). Moreover, the GI50 is > 100 µM (inactive) with MDA-N; > 70.1 µM (inactive) in the assay on MOLT-4; > 49 µM (inactive) with NCI-H23; > 56.1 µM (inactive) in the assay with NCI-H460; > 40.7 µM (inactive) in the assay on OVCAR-3; > 100 µM (inactive) in the assay with OVCAR-4. For the same compound, the GI50 in the assay with SK-MEL-28 was > 100 µM (inactive); in the assay on SR it was > 100 µM (inactive); in the assay on SW-620, > 52.7 µM (inactive); in the assay on T47D, > 62.1 µM (inactive); with TK-10, > 43.9 µM (inactive).

In the case of `CC(=O)O[C@H]1C(=O)[C@@]2(C)[C@H]([C@H](OC(=O)c3ccccc3)[C@]3(O)C[C@H](OC(=O)[C@H](O)[C@@H](NC(=O)C(C)(C)C)c4ccccc4)C(C)=C1C3(C)C)[C@]1(OC(C)=O)CO[C@@H]1C[C@@H]2O`, the GI50 is 0.106 µM (active) in the assay on DU-145; 0.018 µM (active) in the assay with HL-60; 0.215 µM (active) in the assay on HOP-62; 0.0516 µM (active) in the assay with K562; 0.0221 µM (active) with KM12; 0.0982 µM (active) with M14. The GI50 was 5.93 µM (inactive) with MDA-MB-231; 0.022 µM (active) in the assay with MDA-N; 0.0454 µM (active) in the assay on MOLT-4; 0.075 µM (active) in the assay with NCI-H23; 0.0955 µM (active) with NCI-H460; > 10 µM (inactive) with OVCAR-4. For the same compound, the GI50 was 0.0585 µM (active) in the assay with SF-539; 0.105 µM (active) with SK-MEL-28; 0.0405 µM (active) in the assay on SR; 0.0459 µM (active) in the assay with SW-620; 0.38 µM (active) in the assay with TK-10.
